Assays:
[1] = system: J774A.1 macrophages; test: Ox-LDL-induced foam cell formation, Oil Red O staining; type: cell-based, murine
Procedure: J774A.1 macrophage cells were grown in RPMI 1640 media containing 10% FBS in cell culture flask till ˜90% confluence (37° C. incubator containing 5% CO2). The cells were incubated at 37° C. overnight under sterile conditions, approximately 1×10^5 J774.1 cells/well in a 96-well plate. Macrophage cells were incubated for an additional 24 h with lyso-DGTS (50 and 100 μg/ml), rePON1 (50 μg/ml), or rePON1 preincubated with different concentrations of lyso-DGTS (10, 20, 50 and 100 μg/ml). The cells were washed and ox-LDL (25 μg/ml in a RPMI medium) was added for another 24 h to yield foam cells. The cells were washed 3 times with PBS, following fixation with 4% formaldehyde for 10 min, the cells were stained with Oil Red O (0.35 mg/100 ml in 60% isopropanol; Sigma-Aldrich) for 15 min at 37° C. to evaluate the characteristic lipid accumulation in macrophage-derived foam cells. Foam cell formation was observed under microscope.
The density of lipid content was evaluated by alcohol extraction after staining. The absorbance at 514 nm was measured using microplate reader (Infinite M200 PRO fluorescence spectrophotometer (Tecan)).
Macrophages uptake of ox-LDL, forming foam cell, is the hallmark of atherogenesis. The ability of lyso-DGTS or rePON1 incubated with lyso-DGTS to attenuate foam cell formation was examined. […]

[2] = system: HDL; test: HDL surface polarity, Laurdan General Polarization (Gp) assay; set-up: species or system human; conditions: HDL 100 μg/ml, lyso-DGTS 0-100 μg/ml
Procedure: The fluorescence emission spectra of Laurdan were obtained using at excitation/emission 340/400-520 nm. The value of Gp of Laurdan was calculated using the formula: Gp=(I435−I490)/(I435+I490). Each experiment was repeated separately at least three times. *p<0.05, ***p<0.0001 related to the control (HDL without lyso-DGTS). Statistics were analyzed using T-test Graphpad prism 5 software.
HDL particles are plurimolecular, quasi-spherical or discoid, pseudomicellar complexes predominantly composed of polar lipids solubilized by apolipoproteins. In order to determine a possible interaction between lyso-DGTS and the HDL lipid core, the Laurdan General Polarization (Gp) assay was used. […] This interaction may cause a change in its physical state and lipid core polarity and thus affect its functionality.

SMILES: CC/C=C\C/C=C\C/C=C\C/C=C\C/C=C\CCCC(=O)OCC(O)COCCC(C(=O)[O-])[N+](C)(C)C (stereo not drawn) [lyso-DGTS, lyso-diacylglyceryltrimethylhornmoserine]
- enhancement of rePON1 ability to inhibit foam cell formation ([1]; 100 μg/ml lyso-DGTS vs rePON1 alone, not significant): ~10%
- reduction of oil red staining intensity ([1]; lyso-DGTS (50 μg/ml) alone, then ox-LDL 25 μg/ml 24 h): 32%
- effect on HDL Gp values (Laurdan) [2]: significantly decreased the HDL Gp values at a dose dependent manner at 20, 50, and 100 μg/ml
